Measurements: patent US20230002359A1, “PESTICIDALLY ACTIVE FUSED BICYCLIC HETEROAROMATIC COMPOUNDS” (priority 2019, published 2023)

Assays:
Format in all cases: in vivo
[1] = tested on: Plutella xylostella (Diamond Back Moth); test: Example B4: Plutella xylostella (diamond back moth), artificial diet, eggs, 24-well; conditions: 192 h, application rate of 200 ppm, 8 days after infestation, eggs, read-out: control in at least one of the two categories (mortality or growth inhibition)
Method: 24-well microtiter plates with artificial diet were treated with aqueous test solutions prepared from 10′000 ppm DMSO stock solutions by pipetting. After drying, Plutella eggs were pipetted through a plastic stencil onto a gel blotting paper and the plate was closed with it. The samples were assessed for mortality and growth inhibition in comparison to untreated samples 8 days after infestation.

[2] = tested on: Spodoptera littoralis (Egyptian Cotton Leaf Worm); test: Example B7: Spodoptera littoralis (Egyptian cotton leaf worm), cotton leaf discs sprayed, L1 larvae; conditions: foliar, 72 h, application rate of 200 ppm, 3 days after infestation, L1 larvae, read-out: control in at least one of the three categories (mortality, anti-feedant effect, or growth inhibition)
Outline: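 Leaf discs on agar sprayed with aqueous dilutions of 10′000 ppm DMSO stocks, dried, then infested with five L1 larvae. Mortality, anti-feeding and growth inhibition scored versus untreated 3 days after infestation; control given when any category exceeds untreated.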

[3] = tested on: Chilo suppressalis (Striped Rice Stemborer); test: Example B3: Chilo suppressalis (striped rice stemborer), artificial diet, L2 larvae; conditions: 144 h, application rate of 200 ppm, 6 days after infestation, L2 larvae, read-out: control in at least one of the three categories (mortality, anti-feedant effect, or growth inhibition)
Outline: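 Artificial diet treated with aqueous dilutions of DMSO stocks (10'000 ppm stock), dried, then infested with 6-8 L2 larvae per well. Mortality, anti-feeding and growth inhibition scored against untreated samples 6 days after infestation. Control counted when any category exceeds untreated.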

[4] = tested on: Diabrotica Balteata (Corn Root Worm); test: Example B1: Diabrotica balteata (corn root worm), maize sprouts sprayed, L2 larvae; conditions: 96 h, application rate of 200 ppm, 4 days after infestation, L2 larvae, read-out: control in at least one of the two categories (mortality or growth inhibition)
Outline: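 Maize sprouts on agar were sprayed with aqueous test solutions made from 10′000 ppm DMSO stocks, dried, then infested with 6 to 10 L2 larvae per well. Mortality and growth inhibition were scored against untreated samples 4 days after infestation.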

CC(c1nccnc1-c1ccc(C#N)cn1)N(C)c1ncnc2c(Br)cc(C(F)(F)F)cc12 (stereo not shown) [P.124, 6-[3-[1-[[8-bromo-6-(trifluoromethyl)quinazolin-4-yl]-methyl-amino]ethyl]pyrazin-2-yl]pyridine-3-carbonitrile]
≥ 80%: percent control (mortality or growth inhibition) at 200 ppm [1] | percent control (mortality, anti-feedant effect or growth inhibition) at 200 ppm [2] | percent control (mortality, anti-feedant effect or growth inhibition) at 200 ppm [3] | percent control (mortality or growth inhibition) at 200 ppm [4]

CC(c1nccnc1-c1ccc(C#N)cn1)N(CC1CC1)c1ncnc2c(C(F)(F)F)cc(C(F)(F)F)cc12 (stereo not shown) [P.126, 6-[3-[1-[[6,8-bis(trifluoromethyl)quina-zolin-4-yl]-(cyclopropylmethyl)amino]ethyl]pyrazin-2-yl]pyridine-3-carbonitrile]
≥ 80%: percent control (mortality or growth inhibition) at 200 ppm [1] | percent control (mortality, anti-feedant effect or growth inhibition) at 200 ppm [2] | percent control (mortality, anti-feedant effect or growth inhibition) at 200 ppm [3] | percent control (mortality or growth inhibition) at 200 ppm [4]

CC(c1nccnc1-n1nccn1)N(C)c1ncnc2c(C(F)(F)F)cc(Cl)cc12 (stereo not shown) [P.129, 6-chloro-N-methyl-N-[1-[3-(triazol-2-yl)pyrazin-2-yl]ethyl]-8-(trifluoromethyl)quinazolin-4-amine]
≥ 80%: percent control (mortality or growth inhibition) at 200 ppm [1] | percent control (mortality, anti-feedant effect or growth inhibition) at 200 ppm [2] | percent control (mortality, anti-feedant effect or growth inhibition) at 200 ppm [3] | percent control (mortality or growth inhibition) at 200 ppm [4]

CC(c1nccnc1-c1ncccn1)N(CC1CC1)c1ncnc2c(C(F)(F)F)cc(Cl)cc12 (stereo not shown) [P.131, 6-chloro-N-(cyclopropylmethyl)-N-[1-(3-pyrimidin-2-ylpyrazin-2-yl)ethyl]-8-(trifluoromethyl)quinazolin-4-amine]
≥ 80%: percent control (mortality or growth inhibition) at 200 ppm [1] | percent control (mortality, anti-feedant effect or growth inhibition) at 200 ppm [2] | percent control (mortality, anti-feedant effect or growth inhibition) at 200 ppm [3] | percent control (mortality or growth inhibition) at 200 ppm [4]

CC(Nc1ncnc2c(Cl)cc(Br)cc12)c1ncnn1-c1ncccn1 (stereo not shown) [P.159, 6-bromo-8-chloro-N-[1-(2-pyrimidin-2-yl-1,2,4-triazol-3-yl)ethyl]quinazolin-4-amine]
≥ 80%: percent control (mortality or growth inhibition) at 200 ppm [1] | percent control (mortality, anti-feedant effect or growth inhibition) at 200 ppm [2] | percent control (mortality, anti-feedant effect or growth inhibition) at 200 ppm [3] | percent control (mortality or growth inhibition) at 200 ppm [4]

C[C@H](Nc1ncnc2c(I)cc(C(F)(F)F)cc12)c1nccnc1-c1ccc(C#N)cn1 [P.161, 6-[3-[(1S)-1-[[8-iodo-6-(trifluoromethyl)quinazolin-4-yl]amino]ethyl]pyrazin-2-yl]pyridine-3-carbonitrile]
≥ 80%: percent control (mortality or growth inhibition) at 200 ppm [1] | percent control (mortality, anti-feedant effect or growth inhibition) at 200 ppm [2] | percent control (mortality, anti-feedant effect or growth inhibition) at 200 ppm [3] | percent control (mortality or growth inhibition) at 200 ppm [4]

C[C@@H](c1ncnn1-c1ccc(C#N)cn1)N(C)c1ncnc2c(C(F)(F)F)cc(C(F)(F)C3CC3)cc12 [P.163, 6-[5-[(1S)-1-[[6-[cyclopropyl(difluoro)meth-yl]-8-(trifluoromethyl)quinazolin-4-yl]-methyl-amino]ethyl]-1,2,4-triazol-1-yl]pyridine-3-carbonitrile]
≥ 80%: percent control (mortality or growth inhibition) at 200 ppm [1] | percent control (mortality, anti-feedant effect or growth inhibition) at 200 ppm [2] | percent control (mortality, anti-feedant effect or growth inhibition) at 200 ppm [3] | percent control (mortality or growth inhibition) at 200 ppm [4]

CC(Nc1ncnc2c(Br)cc(Cl)cc12)c1nccnc1-n1nccn1 (stereo not shown) [P.173, 8-bromo-6-chloro-N-[1-[3-(triazol-2-yl)pyrazin-2-yl]ethyl]quinazolin-4-amine]
≥ 80%: percent control (mortality or growth inhibition) at 200 ppm [1] | percent control (mortality, anti-feedant effect or growth inhibition) at 200 ppm [2] | percent control (mortality, anti-feedant effect or growth inhibition) at 200 ppm [3] | percent control (mortality or growth inhibition) at 200 ppm [4]

CC(c1nccnc1-n1nccn1)N(C)c1ncnc2c(Br)cc(Cl)cc12 (stereo not shown) [P.174, 8-bromo-6-chloro-N-methyl-N-[1-[3-(triazol-2-yl)pyrazin-2-yl]ethyl]quinazolin-4-amine]
≥ 80%: percent control (mortality or growth inhibition) at 200 ppm [1] | percent control (mortality, anti-feedant effect or growth inhibition) at 200 ppm [2] | percent control (mortality, anti-feedant effect or growth inhibition) at 200 ppm [3] | percent control (mortality or growth inhibition) at 200 ppm [4]

C[C@@H](c1ncnn1-c1ncccn1)N(C)c1c(F)cnc2c(C(F)(F)F)cc(C(F)(F)F)cc12 [P.176, 3-fluoro-N-methyl-N-[(1S)-1-(2-pyrimidin-2-yl-1,2,4-triazol-3-yl)ethyl]-6,8-bis(trifluoromethyl)quinolin-4-amine]
≥ 80%: percent control (mortality or growth inhibition) at 200 ppm [1] | percent control (mortality, anti-feedant effect or growth inhibition) at 200 ppm [2] | percent control (mortality, anti-feedant effect or growth inhibition) at 200 ppm [3] | percent control (mortality or growth inhibition) at 200 ppm [4]

CC(Nc1ncnc2c(Cl)cc(Br)cc12)c1nccnc1-c1ncccn1 (stereo not shown) [P.178, 6-bromo-8-chloro-N-[1-(3-pyrimidin-2-ylpyrazin-2-yl)ethyl]quinazolin-4-amine]
≥ 80%: percent control (mortality or growth inhibition) at 200 ppm [1] | percent control (mortality, anti-feedant effect or growth inhibition) at 200 ppm [2] | percent control (mortality, anti-feedant effect or growth inhibition) at 200 ppm [3] | percent control (mortality or growth inhibition) at 200 ppm [4]

CC(c1ncnn1-c1ccc(F)cn1)N(C)c1ncnc2c(Br)cc(C(F)(F)F)cc12 (stereo not shown) [P.185, 8-bromo-N-[1-[2-(5-fluoro-2-pyridyl)-1,2,4-triazol-3-yl]ethyl]-N-methyl-6-(trifluoromethyl)quinazolin-4-amine]
≥ 80%: percent control (mortality or growth inhibition) at 200 ppm [1] | percent control (mortality, anti-feedant effect or growth inhibition) at 200 ppm [2] | percent control (mortality, anti-feedant effect or growth inhibition) at 200 ppm [3] | percent control (mortality or growth inhibition) at 200 ppm [4]

CC(c1ncnn1-c1ccc(F)cn1)N(C)c1ncnc2c(C(F)(F)F)cc(C(F)(F)F)cc12 (stereo not shown) [P.189, N-[1-[2-(5-fluoro-2-pyridyl)-1,2,4-triazol-3-yl]ethyl]-N-methyl-6,8-bis(trifluoromethyl)quina-zolin-4-amine]
≥ 80%: percent control (mortality or growth inhibition) at 200 ppm [1] | percent control (mortality, anti-feedant effect or growth inhibition) at 200 ppm [2] | percent control (mortality, anti-feedant effect or growth inhibition) at 200 ppm [3] | percent control (mortality or growth inhibition) at 200 ppm [4]

CC(c1ncnn1-c1ccc(OC(F)F)cn1)N(C)c1ncnc2c(C(F)(F)F)cc(C(F)(F)F)cc12 (stereo not shown) [P.192]
≥ 80%: percent control (mortality or growth inhibition) at 200 ppm [1] | percent control (mortality, anti-feedant effect or growth inhibition) at 200 ppm [2] | percent control (mortality, anti-feedant effect or growth inhibition) at 200 ppm [3] | percent control (mortality or growth inhibition) at 200 ppm [4]

CC(c1nc(Br)nn1-c1ncccn1)N(C)c1ncnc2c(C(F)(F)F)cc(Cl)cc12 (stereo not shown) [P.205, N-[1-(5-bromo-2-pyrimidin-2-yl-1,2,4-triazol-3-yl)ethyl]-6-chloro-N-methyl-8-(trifluoromethyl)quinazolin-4-amine]
≥ 80%: percent control (mortality or growth inhibition) at 200 ppm [1] | percent control (mortality, anti-feedant effect or growth inhibition) at 200 ppm [2] | percent control (mortality, anti-feedant effect or growth inhibition) at 200 ppm [3] | percent control (mortality or growth inhibition) at 200 ppm [4]

C[C@@H](c1ncnn1-c1ccc(C#N)cn1)N(C)c1ccnc2c(C(F)(F)F)cc(Br)cc12 [P.206, 6-[5-[(1S)-1-[[6-bromo-8-(trifluoromethyl)-4-quinolyl]-methyl-amino]ethyl]-1,2,4-triazol-1-yl]pyridine-3-carbonitrile]
≥ 80%: percent control (mortality or growth inhibition) at 200 ppm [1] | percent control (mortality, anti-feedant effect or growth inhibition) at 200 ppm [2] | percent control (mortality, anti-feedant effect or growth inhibition) at 200 ppm [3] | percent control (mortality or growth inhibition) at 200 ppm [4]
